pIC50: −log10 of the molar value.
Tested on: 616215-338-R-J1-PDC complex spheroid viability
Test: Anticancer human tumor 616215-338-R-J1-PDC patient-derived colon adenocarcinoma cell line growth inhibition [POLQ]
Settings: for pIC50: curve of first compound; for viability, T/C: stronger effect = lower value
Outline: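 Patient-derived tumour cells were co-cultured with HUVEC and mesenchymal stem cells as multicellular spheroids at 37 °C. They were treated with POLQ inhibitors (novobiocin, ART-558, RP6685) alone or combined with other agents. Top concentrations were at or near clinical Cmax (otherwise 10 microM; SN-38 at 1 microM), decreasing in half-log steps.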

[1] = second compound 0.0316 µM, first compound 0.0316 µM
[2] = second compound 0.0316 µM, first compound 0.1 µM
[3] = second compound 0.0316 µM, first compound 0.316 µM
[4] = second compound 0.0316 µM, first compound 1 µM
[5] = second compound 0.0316 µM, first compound 3.16 µM
[6] = second compound 0.0316 µM, first compound 10 µM
[7] = second compound 0.1 µM, first compound 0.0316 µM
[8] = second compound 0.1 µM, first compound 0.1 µM
[9] = second compound 0.1 µM, first compound 0.316 µM
[10] = second compound 0.1 µM, first compound 1 µM
[11] = second compound 0.1 µM, first compound 3.16 µM
[12] = second compound 0.1 µM, first compound 10 µM
[13] = second compound 0.316 µM, first compound 0.0316 µM
[14] = second compound 0.316 µM, first compound 0.1 µM
[15] = second compound 0.316 µM, first compound 0.316 µM
[16] = second compound 0.316 µM, first compound 1 µM
[17] = second compound 0.316 µM, first compound 3.16 µM
[18] = second compound 0.316 µM, first compound 10 µM
[19] = second compound 1 µM, first compound 0.0316 µM
[20] = second compound 1 µM, first compound 0.1 µM
[21] = second compound 1 µM, first compound 0.316 µM
[22] = second compound 1 µM, first compound 1 µM
[23] = second compound 1 µM, first compound 3.16 µM
[24] = second compound 1 µM, first compound 10 µM
[25] = second compound 3.16 µM, first compound 0.0316 µM
[26] = second compound 3.16 µM, first compound 0.1 µM
[27] = second compound 3.16 µM, first compound 0.316 µM
[28] = second compound 3.16 µM, first compound 1 µM
[29] = second compound 3.16 µM, first compound 3.16 µM
[30] = second compound 3.16 µM, first compound 10 µM
[31] = second compound 10 µM, first compound 0.0316 µM
[32] = second compound 10 µM, first compound 0.1 µM
[33] = second compound 10 µM, first compound 0.316 µM
[34] = second compound 10 µM, first compound 1 µM
[35] = second compound 10 µM, first compound 3.16 µM
[36] = second compound 10 µM, first compound 10 µM
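Note: spheroids exposed to compounds for one week before readout.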
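Throughout, for viability, T/C: percent viability relative to DMSO vehicle wells taken as 100%.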

CNCc1ccc(-c2[nH]c3cc(F)cc4c3c2CCNC4=O)cc1 + COC1C(OC(N)=O)C(O)C(Oc2ccc3c(O)c(NC(=O)c4ccc(O)c(CC=C(C)C)c4)c(=O)oc3c2C)OC1(C)C was tested, and the pIC50 (second compound 0.0316 µM) was less than 5.00, the pIC50 (second compound 0.1 µM) was less than 5.00 and the pIC50 (second compound 0.316 µM) was less than 5.00. For the same compound, the pIC50 (second compound 1 µM) was less than 5.00, the pIC50 (second compound 3.16 µM) was less than 5.00 and the pIC50 (second compound 10 µM) was less than 5.00. For the same compound, the viability, T/C [1] was 98.7%, the viability, T/C [2] was 99.8% and the viability, T/C [3] was 106%. It also gave a viability, T/C [4] of 111%, a viability, T/C [5] of 107% and a viability, T/C [6] of 93.3%. The viability, T/C [7] was 102%, the viability, T/C [8] was 102% and the viability, T/C [9] was 98.7%. It also gave a viability, T/C [10] of 99.5%, a viability, T/C [11] of 101% and a viability, T/C [12] of 83.9%. For the same compound, the viability, T/C [13] was 107%, the viability, T/C [14] was 113% and the viability, T/C [15] was 115%. It also gave a viability, T/C [16] of 105%, a viability, T/C [17] of 105% and a viability, T/C [18] of 83.2%. It also gave a viability, T/C [19] of 105%, a viability, T/C [20] of 106% and a viability, T/C [21] of 101%. It also gave a viability, T/C [22] of 102%, a viability, T/C [23] of 109% and a viability, T/C [24] of 76.2%. It also gave a viability, T/C [25] of 106%, a viability, T/C [26] of 101% and a viability, T/C [27] of 106%. It also gave a viability, T/C [28] of 109%, a viability, T/C [29] of 117% and a viability, T/C [30] of 58.9%. For the same compound, the viability, T/C [31] was 109%, the viability, T/C [32] was 101% and the viability, T/C [33] was 97.6%. For the same compound, the viability, T/C [34] was 104%, the viability, T/C [35] was 105% and the viability, T/C [36] was 55%.

Cn1ncnc1[C@H]1c2n[nH]c(=O)c3cc(F)cc(c23)N[C@@H]1c1ccc(F)cc1 + Cc1cccc(N(C)C(=O)C2C(O)CCN2c2nc(C)cc(C(F)(F)F)c2C#N)c1 gave a pIC50 (second compound 0.0316 µM) of less than 7.00, a pIC50 (second compound 0.1 µM) of less than 7.00 and a pIC50 (second compound 0.316 µM) of less than 7.00. It also gave a pIC50 (second compound 1 µM) of less than 7.00, a pIC50 (second compound 3.16 µM) of less than 7.00 and a pIC50 (second compound 10 µM) of less than 7.00. The viability, T/C (second compound 0.0316 µM, first compound 0.000316 µM) was 106%, the viability, T/C (second compound 0.0316 µM, first compound 0.001 µM) was 87.5% and the viability, T/C (second compound 0.0316 µM, first compound 0.00316 µM) was 92.1%. It also gave a viability, T/C (second compound 0.0316 µM, first compound 0.01 µM) of 102%, a viability, T/C [1] of 105% and a viability, T/C [2] of 99.3%. For the same compound, the viability, T/C (second compound 0.1 µM, first compound 0.000316 µM) was 108%, the viability, T/C (second compound 0.1 µM, first compound 0.001 µM) was 99.5% and the viability, T/C (second compound 0.1 µM, first compound 0.00316 µM) was 101%. It also gave a viability, T/C (second compound 0.1 µM, first compound 0.01 µM) of 105%, a viability, T/C [7] of 108% and a viability, T/C [8] of 108%. It also gave a viability, T/C (second compound 0.316 µM, first compound 0.000316 µM) of 104%, a viability, T/C (second compound 0.316 µM, first compound 0.001 µM) of 104% and a viability, T/C (second compound 0.316 µM, first compound 0.00316 µM) of 109%. The viability, T/C (second compound 0.316 µM, first compound 0.01 µM) was 105%, the viability, T/C [13] was 110% and the viability, T/C [14] was 97.3%. The viability, T/C (second compound 1 µM, first compound 0.000316 µM) was 101%, the viability, T/C (second compound 1 µM, first compound 0.001 µM) was 101% and the viability, T/C (second compound 1 µM, first compound 0.00316 µM) was 111%. The viability, T/C (second compound 1 µM, first compound 0.01 µM) was 106%, the viability, T/C [19] was 115% and the viability, T/C [20] was 104%. The viability, T/C (second compound 3.16 µM, first compound 0.000316 µM) was 116%, the viability, T/C (second compound 3.16 µM, first compound 0.001 µM) was 106% and the viability, T/C (second compound 3.16 µM, first compound 0.00316 µM) was 101%. It also gave a viability, T/C (second compound 3.16 µM, first compound 0.01 µM) of 109%, a viability, T/C [25] of 104% and a viability, T/C [26] of 97.1%. It also gave a viability, T/C (second compound 10 µM, first compound 0.000316 µM) of 106%, a viability, T/C (second compound 10 µM, first compound 0.001 µM) of 107% and a viability, T/C (second compound 10 µM, first compound 0.00316 µM) of 111%. The viability, T/C (second compound 10 µM, first compound 0.01 µM) was 102%, the viability, T/C [31] was 99.1% and the viability, T/C [32] was 98.6%.

In the case of CCc1cc2c(N3CCc4c(cc(Cn5ccnc5)cc4-c4cn(C)nc4C(F)(F)F)C3=O)ccnc2c(OC)n1 + Cc1cccc(N(C)C(=O)C2C(O)CCN2c2nc(C)cc(C(F)(F)F)c2C#N)c1, the pIC50 (second compound 0.0316 µM) was 5.06, the pIC50 (second compound 0.1 µM) was 5.20 and the pIC50 (second compound 0.316 µM) was 5.32. For the same compound, the pIC50 (second compound 1 µM) was 5.18, the pIC50 (second compound 3.16 µM) was 5.41 and the pIC50 (second compound 10 µM) was 5.24. For the same compound, the viability, T/C [1] was 98%, the viability, T/C [2] was 102% and the viability, T/C [3] was 86.4%. The viability, T/C [4] was 69.4%, the viability, T/C [5] was 63.9% and the viability, T/C [6] was 46.8%. For the same compound, the viability, T/C [7] was 107%, the viability, T/C [8] was 106% and the viability, T/C [9] was 83.2%. It also gave a viability, T/C [10] of 84.2%, a viability, T/C [11] of 52.7% and a viability, T/C [12] of 46.3%. It also gave a viability, T/C [13] of 106%, a viability, T/C [14] of 102% and a viability, T/C [15] of 94%. It also gave a viability, T/C [16] of 70.8%, a viability, T/C [17] of 54.5% and a viability, T/C [18] of 43.8%. It also gave a viability, T/C [19] of 113%, a viability, T/C [20] of 104% and a viability, T/C [21] of 88.4%. It also gave a viability, T/C [22] of 74.1%, a viability, T/C [23] of 58.8% and a viability, T/C [24] of 45.2%. It also gave a viability, T/C [25] of 97%, a viability, T/C [26] of 94.8% and a viability, T/C [27] of 95%. It also gave a viability, T/C [28] of 63%, a viability, T/C [29] of 59.3% and a viability, T/C [30] of 41.3%. The viability, T/C [31] was 98%, the viability, T/C [32] was 88.6% and the viability, T/C [33] was 90.9%. For the same compound, the viability, T/C [34] was 61.7%, the viability, T/C [35] was 60.7% and the viability, T/C [36] was 43.5%.
